The values below come from paper PMC9609178, “Tumor-Specific Monomethyl Auristatin E (MMAE) Prodrug Nanoparticles for Safe and Effective Chemotherapy” (Pharmaceutics, 2022).

For series [1] the following is noted: cited from earlier work. From the text:
Monomethyl auristatin E (MMAE), a synthetic analog of the natural product dolastatin 10, is a potent antimitotic agent that inhibits tubulin polymerization.

Series [2] deals with 4T1 tumor. The series is described as follows: Antitumor efficacy in 4T1 breast tumor models. The format is in vivo, mice. How it is done: (§1) The antitumor efficacy was evaluated in the breast tumor models. The breast tumor models were prepared via subcutaneous injection of 1 × 10^6 4T1 cells. […] The mice were treated once every three days, and tumor volumes were calculated as the smallest diameter^2 × largest diameter × 0.53. The mice with a tumor volume of 2000 mm^3 or larger were counted as dead. […] The major organs were collected from mice on day 5 after treatments, and structural abnormality in the organ tissues was assessed by staining with H&E.

Series [3] deals with 4T1 cells. Kind of series: Cytotoxicity, CCK-8 assay, 4T1 cells. The format is cell-based, murine. The note with it: 24 h incubation; CCK-8, 450 nm; read-out: IC50, cell viability, 4T1 cells. The procedure: (§2) First, […] 4T1 or H9C2 cells were seeded in the 96-well cell culture plates. […] Finally, the cell viability of each cell was measured using a microplate reader with 450 nm of wavelength (VERSAmaxTM; Molecular Devices Corp., San Jose, CA, USA).

Series [4] has as its system H9C2 cells. The series is described as follows: Cytotoxicity, CCK-8 assay, H9C2 cells. As to conditions: 24 h incubation; CCK-8, 450 nm; read-out: IC50, cell viability, H9C2 cells. The format is cell-based, rat. The procedure:
as §2

A short description of series [5]: Toxicity study in 4T1 tumor-bearing mice (histology, hematology, body weight, survival). The format is in vivo. How it is done:
as §1

Series [6] has as its system 4T1 cells. Kind of series: Tubulin formation in 4T1 cells (anti-tubulin antibody staining). It counts as cell-based, murine. As to conditions: after 24 h of treatment; Cy5.5 anti-tubulin antibody. How it is done:
Then, cells were fixed with 4% paraformaldehyde fixative for 25 min, and stained with DAPI solution (Invitrogen, Carlsbad, CA, USA) for 15 min in the dark. Finally, the 4T1 cells were observed using a confocal laser scanning microscope (CLSM) equipped with 405 diode (405 nm) and HeNe-Red (633 nm) lasers (Leica, Wetzlar, Germany).

Square brackets hold non-standard residues; d marks the D form. Peptide text beside a SMILES is read from it. * marks the point of attachment. Dolaproine = CO[C@@H]([C@@H]1CCCN1)[C@@H](C)C(=O)O; Dil = CC[C@H](C)[C@H](NC)[C@@H](CC(=O)O)OC; X1 = C[C@@H](N*)[C@@H](O)c1ccccc1; NMeV = CN[C@H](C(=O)O)C(C)C

With `CC[C@H](C)[C@@H]([C@@H](CC(=O)N1CCC[C@H]1[C@H](OC)[C@@H](C)C(=O)N[C@H](C)[C@@H](O)c1ccccc1)OC)N(C)C(=O)[C@@H](NC(=O)[C@@H](NC)C(C)C)C(C)C` [MMAE, Monomethyl auristatin E] (H-[NMeV]V[Dil][Dolaproine]-X1), the “Antitumor efficacy, times more potent than doxorubicin” value in series [1] is 100–1000 times. Moreover, the “Tumor growth during monitoring for 15 days” value in series [2] (0.1 mg/kg MMAE once every three days, 15 days) is “rapid tumor growth compared to FRRG-MMAE-treated mice”. The “Tumor volume on day 5 after treatment” value in series [2] (0.2 mg/kg based on MMAE contents, once every three days, day 5) was determined as 154.73 ± 31.63 mm^3. For the same compound, the IC50 in series [3] is 0.92 nM; in series [4], 1.17 nM. Moreover, in series [5] (0.2 mg/kg MMAE equivalent once every three days), the Body weight entry is “significant body weight loss”. The Mice survival entry in series [5] (0.2 mg/kg MMAE equivalent once every three days, 15 days) is “all the mice were dead within five days”. Also, in series [5] (0.2 mg/kg MMAE equivalent, after five days of treatment), the “Hematological parameters (ALB, AST, ALT)” value is reported as “significant changes”. The “Structural abnormalities in normal organs (liver, lung, spleen, kidney and heart), H&E” value in series [5] (0.2 mg/kg once every three days, after five days of treatment) is listed as “severe systemic toxicity”. Moreover, the “Tubulin formation in 4T1 cells compared to naive cells” value in series [6] is reported as “significantly inhibited”.
